In test [1] the test system is A549. Briefly: Antiproliferative activity against human A549 cells assessed as inhibition of cell growth incubated for 48 hrs by MTT assay. The format is functional, cell-based. Conditions: A549, 48 h.
For test [2], the system named is HCT-116. Kind of test: Antiproliferative activity against human HCT-116 cells assessed as inhibition of cell growth incubated for 48 hrs by MTT assay. The format is functional, cell-based. To be noted: HCT-116, 48 h. On the technique in general: Tetrazolium assays rely on reduction of a dye to a coloured formazan, in cell work by metabolically active cells.
Test [3] has as its system HepG2. Briefly: Antiproliferative activity against human HepG2 cells assessed as inhibition of cell growth incubated for 48 hrs by MTT assay. Conditions: HepG2, 48 h. The format is functional, cell-based.
For test [4], the system named is MDA-MB-231. Briefly: Antiproliferative activity against human MDA-MB-231 cells assessed as inhibition of cell growth incubated for 48 hrs by MTT assay. The format is functional, cell-based. Conditions: MDA-MB-231, 48 h.
In test [5] the test system is HCT-116. Briefly: Induction of cell cycle arrest in human HCT-116 cells assessed as increase in G2/M phase cells at 20 nM measured after 48 hrs by propidium iodide/RNase staining based flow cytometry analysis (reference value: […] %). The format is functional. Background: A flow cytometer gives signals particle by particle.
Test [6] concerns HCT-116. Briefly: Induction of cell cycle arrest in human HCT-116 cells assessed as G1 phase cells at 20 nM measured after 48 hrs by propidium iodide/RNase staining based flow cytometry analysis (reference value: 61.51 %). The format is functional.
Test [7] has as its system HCT-116. Kind of test: Induction of cell cycle arrest in human HCT-116 cells assessed as S phase cells at 20 nM measured after 48 hrs by propidium iodide/RNase staining based flow cytometry analysis (reference value: […] %). The format is functional.

Broadly, the IC50 is the concentration needed to halve the response being measured. As to `COc1cc(-c2nccn3cc(-c4ccc(C)cc4)nc23)cc(OC)c1OC`, the IC50 worked out at 135 nM in test [1], 74 nM in test [2], 160 nM in test [3] and 53 nM in test [4].
`COc1cc(C(=O)c2cn3ccc(C)c([N+](=O)[O-])c3n2)cc(OC)c1OC`: the IC50 in test [1], in test [2], in test [3] and in test [4] was above 10000 nM each time.
In the case of `COc1cc(C(=O)c2cn3ccnc(-c4ccc5[nH]ccc5c4)c3n2)cc(OC)c1OC`, the IC50 in test [1] was above 10000 nM; in test [2] it was 689 nM; in test [3], above 10000 nM; in test [4] it was above 10000 nM.
For the compound `COc1cc(C(=O)c2cn3cc(Cl)cc(C(F)(F)F)c3n2)cc(OC)c1OC`, the IC50 in test [1], in test [2], in test [3] and in test [4] was above 10000 nM in each case.
Consider `COc1cc(C(=O)c2cn3ccnc(-c4ccc(F)cc4)c3n2)cc(OC)c1OC`, for which the IC50 in test [1], in test [2], in test [3] and in test [4] was above 10000 nM in each case.
`COc1cc2c(c(OC)c1OC)-c1ccc(OC)c(=O)cc1[C@@H](NC(C)=O)CC2` [COLCHICINE]: the values for the Activity in test [5], in test [6] and in test [7] were 60.81%, 24.07% and 15.12%, respectively. Also, the IC50 in test [1] amounted to 184 nM; in test [2], 11 nM; in test [3] it was 54 nM; in test [4], 176 nM.
Turning to `COc1cc(-c2nccn3cc(-c4ccc([N+](=O)[O-])cc4)nc23)cc(OC)c1OC`, the IC50 in test [1], in test [2], in test [3] and in test [4] was above 10000 nM each time.
For the compound `COc1ccc(-c2cn3ccnc(-c4cc(OC)c(OC)c(OC)c4)c3n2)cc1O`, the IC50 is above 10000 nM in test [1], 74 nM in test [2], 87 nM in test [3] and above 10000 nM in test [4].
Turning to `COc1cc(-c2nccn3cc(-c4ccccc4)nc23)cc(OC)c1OC`, the IC50 was 378 nM in test [1], 266 nM in test [2], 267 nM in test [3] and 364 nM in test [4].
`COc1cc(C(=O)c2cn3ccnc(-c4ccc(C)cc4)c3n2)cc(OC)c1OC`: the IC50 in test [1] is 7900 nM; in test [2], above 10000 nM; in test [3], above 10000 nM; in test [4], above 10000 nM.
Consider `COc1cc(-c2nccn3cc(-c4ccc(N)cc4)nc23)cc(OC)c1OC`, for which the IC50 turned out to be 287 nM in test [1], 158 nM in test [2], 252 nM in test [3] and 294 nM in test [4].
The like results for `COc1ccn2cc(C(=O)c3cc(OC)c(OC)c(OC)c3)nc2c1` were, in that order, above 10000 nM, 6520 nM, 4140 nM and above 10000 nM.
As for `COc1cc(C(=O)c2cn3ccc(C(F)(F)F)cc3n2)cc(OC)c1OC`, the IC50 in test [1], in test [2], in test [3] and in test [4] was above 10000 nM in each case.
As for `COc1ccc(-c2cn3ccnc(-c4cc(OC)c(OC)c(OC)c4)c3n2)cc1N`, the IC50 in test [1] came out at 309 nM; in test [2], 122 nM; in test [3], 123 nM; in test [4], 111 nM.
In the case of `COc1cc(C(=O)c2cn3ccnc(-c4ccccc4)c3n2)cc(OC)c1OC`, the concentration for half-maximal inhibition (IC50) in test [1] is 3940 nM; in test [2], 1940 nM; in test [3], above 10000 nM; in test [4], above 10000 nM.
With `COc1ccc(-c2cn3ccnc(-c4cc(OC)c(OC)c(OC)c4)c3n2)cc1`, the IC50 in test [1] came out at 457 nM; in test [2] it was 191 nM; in test [3] it was 205 nM; in test [4] it was 105 nM.
For `COc1cc(-c2nccn3cc(-c4ccc(F)cc4)nc23)cc(OC)c1OC` the same measures were 137 nM, 263 nM, 217 nM and 401 nM.
As for `COc1cc(C(=O)c2cn3ccc(C)cc3n2)cc(OC)c1OC`, the IC50 in test [1] was above 10000 nM; in test [2], 3060 nM; in test [3], 6700 nM; in test [4], 9280 nM.
With `COc1cc(-c2nccn3cc(-c4ccc(C(F)(F)F)cc4)nc23)cc(OC)c1OC`, the IC50 in test [1] is above 10000 nM; in test [2] it was above 10000 nM; in test [3], 2630 nM; in test [4], above 10000 nM.
For the compound `COc1cc(C(=O)c2cn3c(C(C)C)cccc3n2)cc(OC)c1OC`, the IC50 in test [1], in test [2], in test [3] and in test [4] was above 10000 nM in each case.
For the compound `COc1ccc(-c2cn3ccnc(-c4cc(OC)c(OC)c(OC)c4)c3n2)cc1[N+](=O)[O-]`, the IC50 in test [1], in test [2], in test [3] and in test [4] was above 10000 nM throughout.
Regarding `COc1cc(-c2nccn3cc(-c4ccc(O)cc4)nc23)cc(OC)c1OC`, the IC50 in test [1] is above 10000 nM; in test [2], 901 nM; in test [3] it was 823 nM; in test [4], above 10000 nM.
On to `COc1cc(-c2nccn3cc(-c4ccc(Cl)cc4)nc23)cc(OC)c1OC`, for which the IC50 in test [1] worked out at 7290 nM; in test [2], 351 nM; in test [3], 475 nM; in test [4], 2090 nM.
In the case of `COc1cc(C(=O)c2cn3ccc(F)cc3n2)cc(OC)c1OC`, the IC50 in test [1], in test [2], in test [3] and in test [4] was above 10000 nM in each case.
Regarding `COc1cc(C(=O)c2cn3cc(Br)nc(Cl)c3n2)cc(OC)c1OC`, the IC50 is 8260 nM in test [1], 1620 nM in test [2], 5120 nM in test [3] and 6760 nM in test [4].

Values taken from ChEMBL document CHEMBL5150065, “Design, synthesis, and bioevaluation of imidazo [1,2-a] pyrazine derivatives as tubulin polymerization inhibitors with potent anticancer activities” (Bioorg Med Chem, 2022).
